# Assay results taken from patent publication US20260297060A1, “COMPOUNDS FOR THE DEGRADATION OF MUTANT BRAF” (C4 THERAPEUTICS, INC., priority 2023, published 2026).
# Read-outs that look alike come from different tables or passages of the source.
# Key:
# [1] = Pharmacokinetics after 21 days dosing in the efficacy study (plasma, tumor and brain concentrations; plasma AUC at steady state), Example 14; type: in vivo, female BALB/c nude mice; conditions: for Concentration in Brain / concentration at 24 h: 24 h; for Concentration in Brain: BQL: below the lower limit of quantitation; for concentration at 4 h / concentration at 24 h / concentration at 0.25 h / concentration at 0.5 h / concentration at 1 h / concentration at 2 h / concentration at 8 h / concentration at 10 h: mouse, po
# Description: Agents were tested in the A375 human melanoma xenografts. Compound 26 and Compound 141 were administered to BALB/c nude mice bearing A375 tumors from PG-DO and dosed via PO twice a day (BID) or third a day (TIP) or dosed P daily (QD) from PG-D. Dabrafenib was administered to BALB/c nude mice bearing A375 tumors from PG-D1 and dosed via P daily (QD). Compound 26 was dosed at 1.5 mg/kg (QD), 2 mg/kg (TID), 3 mg/kg (BID), 6 mg/kg (QD) and 10 mg/kg (BID) for 21 days. Compound 141 was dosed at 0.75 mg/kg (BID), 1 mg/kg (TID), 1.5 mg/kg (BID), 3 mg/kg (QD) and 5 mg/kg (BID) for 21 days. Dabrafenib was dosed at 100 mg/kg for 21 days. This study was non-GLP.
# The plasma samples were collected at predetermined time points for PK analysis. For non-termination plasma collection: the blood samples were collected into the 1.5 mL Eppendorf tubes containing 3 μL of 0.5 M EDTA-K2. And then the anticoagulant blood samples were centrifuged at 2,500 g at 4° C. for 15 minutes. For termination plasma collection: the mice was euthanized at predetermined time points post the treatment, the blood samples were collected into the 1.5 mL Eppendorf tubes containing 15 μL of 0.5 M EDTA-K2. And then the anticoagulant blood samples were centrifuged at 2,500 g at 4° C. for 15 minutes. The plasma samples were separated into 2 aliquots. The 1st was used for PK analysis, and the 2nd was served as backup.
# The tumor samples were collected at predetermined time points for PK and WB analysis. The tumor was dissected out and split into 3 parts. The 1st part was used for PK analysis, the 2nd part was used for WB analysis and the last one was used as backup for the study. The samples were transferred into pre-labeled tubes and quickly froze in liquid nitrogen within 2 minutes after dissection. The samples were stored at −80° C. before analysis.
# The brain samples were collected at predetermined time points for PK and potential WB analysis. The brain was dissected out and split into 3 parts (left brain, right brain upper and right brain lower), the left brain was used for PK, the right brain upper was used for WB and the last one was used as the backup for the study. The samples were transferred into pre-labeled tubes and quickly froze in liquid nitrogen within 2 minutes after dissection. The samples were stored at −80° C. before analysis.
# The harvested plasma and tumor samples were processed for pharmacokinetics analysis by LC-MS/MS with a concentration range of 1.00-1,000 ng/mL for dabrafenib in plasma and 0.0500-50 ng/mL in tumor and brain homogenate, 5.00-10,000 ng/mL for Compound 141 in plasma and 0.200~200 ng/ml in tumor and brain homogenate. 20.0~20,000 ng/mL for Compound 26 in plasma and 0.5~500 ng/mL for Compound 26 tumor and brain homogenate.
# Dabrafenib, Compound 26 and Compound 141 in female BALB/c nude mice plasma (K2-EDTA), tumor and brain homogenate were analyzed by LC-MS/MS (Triple Quad 6500+ Low Mass). Verapamil (5 ng/mL) in acetonitrile: methanol (V: V=95:5) was used as the internal standard for Dabrafenib, Compound 26 and Compound 141 in plasma. Verapamil (0.5 ng/mL) in acetonitrile: methanol (V: V=95:5) was used as the internal standard for Dabrafenib, Compound 26 and Compound 141 in tumor and brain homogenate.
# An aliquot of 10 μL unknown sample, calibration standard, quality control, dilute quality control, single blank and double blank samples were added to the 96-well plate. Each sample for Dabrafenib, Compound 26 and Compound 141 in plasma (except the double blank) was quenched with 200 μL IS respectively (double blank sample was quenched with 200 μL ACN: MeOH (V: V=95:5)); each sample for Dabrafenib, Compound 26 and Compound 141 in tumor and brain(except the double blank) was quenched with 100 μL IS respectively (double blank sample was quenched with 100 μL ACN: MeOH (V: V=95:5)); and then the mixture was vortex-mixed for 5 min at 800 rpm and centrifuged for 15 min at 3220 g (4000 rpm), 4° C. […]
# A375 = A375 cell viability assay (Example 15); type: cell-based, human
# Description: FIG. 83 is a line graph showing the results of Compound 26, Compound 26-NMe, Compound 141, and Compound 141-NMe in an A375 viability assay. The y-axis is viability in % and the x-axis is concentration (nM). The experiment was conducted as described in Example 15.
# This robust degradation activity is surprising in view of the minimal inhibition-based activity of selected compounds. […] However, the degradation deficient versions of Compound 26 and Compound 141 (N-methyl analogs) had minimal effect on cell viability at a concentration of 100 nM (see FIG. 83 and Example 15).
# [2] = plasma, 0.75 mg/kg p.o. BID x 21 days, mean ± SEM
# [3] = plasma, 0.75 mg/kg p.o. BID x 21 days, mean ± SEM, read-out: Concentration in Plasma
# [4] = plasma, 1 mg/kg p.o. TID x 21 days, mean ± SEM
# [5] = plasma, 1 mg/kg p.o. TID x 21 days, mean ± SEM, read-out: Concentration in Plasma
# [6] = plasma, 1.5 mg/kg p.o. BID x 21 days, mean ± SEM
# [7] = plasma, 1.5 mg/kg p.o. BID x 21 days, mean ± SEM, read-out: Concentration in Plasma
# [8] = plasma, 3 mg/kg p.o. QD x 21 days, mean ± SEM
# [9] = plasma, 3 mg/kg p.o. QD x 21 days, mean ± SEM, read-out: Concentration in Plasma
# [10] = plasma, 5 mg/kg p.o. BID x 21 days, mean ± SEM
# [11] = plasma, 5 mg/kg p.o. BID x 21 days, mean ± SEM, read-out: Concentration in Plasma
# [12] = tumor, 1 mg/kg p.o. TID x 21 days, mean ± SEM, read-out: Concentration in Tumor
# [13] = tumor, 1.5 mg/kg p.o. BID x 21 days, mean ± SEM, read-out: Concentration in Tumor
smiles,measurement,setting,value
"CCN(C)S(=O)(=O)Nc1ccc(F)c(Oc2ccc3ncn(C4CC5(CCN(C6CC7(C6)CN(c6cc8c(cc6F)c(N6CCC(=O)NC6=O)nn8C)C7)CC5)C4)c(=O)c3c2)c1C#N (centres unmarked) [Compound 141, 6-[2-cyano-3-[[ethyl(methyl)sulfamoyl]amino]-6-fluoro-phenoxy]-3-[7-[2-[3-(2,4-dioxohexahydropyrimidin-1-yl)-5-fluoro-1-methyl-indazol-6-yl]-2-azaspiro[3.3]heptan-6-yl]-7-azaspiro[3.5]nonan-2-yl]-4-oxo-quinazoline]",Concentration in Brain,[1]; 0.75 mg/kg p.o. BID x 21 days,BQL
same,Concentration in Brain,[1]; 1 mg/kg p.o. TID x 21 days,BQL
same,Concentration in Brain,[1]; 1.5 mg/kg p.o. BID x 21 days,BQL
same,Concentration in Brain,[1]; 3 mg/kg p.o. QD x 21 days,BQL
same,concentration at 4 h,"[1]; brain, 0.75 mg/kg p.o. BID x 21 days, mean ± SEM, read-out: Concentration in Brain",10.7 ± 2.04 ng/g
same,concentration at 4 h,"[1]; brain, 1 mg/kg p.o. TID x 21 days, mean ± SEM, read-out: Concentration in Brain",12.4 ± 2.79 ng/g
same,concentration at 4 h,"[1]; brain, 1.5 mg/kg p.o. BID x 21 days, mean ± SEM, read-out: Concentration in Brain",10.1 ± 1.79 ng/g
same,concentration at 4 h,"[1]; brain, 3 mg/kg p.o. QD x 21 days, mean ± SEM, read-out: Concentration in Brain",22.9 ± 2.7 ng/g
same,concentration at 4 h,"[1]; brain, 5 mg/kg p.o. BID x 21 days, mean ± SEM, read-out: Concentration in Brain",51.4 ± 21.7 ng/g
same,concentration at 24 h,"[1]; brain, 5 mg/kg p.o. BID x 21 days, read-out: Concentration in Brain",2.25 ng/g
same,concentration at 0.25 h,[1]; [2],369 ± 64.7 ng/mL
same,concentration at 0.5 h,[1]; [2],732 ± 139 ng/mL
same,concentration at 1 h,[1]; [2],1140 ± 226 ng/mL
same,concentration at 2 h,[1]; [2],1280 ± 277 ng/mL
same,concentration at 4 h,[1]; [3],663 ± 79 ng/mL
same,concentration at 8 h,[1]; [2],432 ± 45.3 ng/mL
same,concentration at 10 h,[1]; [2],343 ± 34.9 ng/mL
same,concentration at 24 h,[1]; [3],10.8 ± 2.44 ng/mL
same,concentration at 0.25 h,[1]; [4],950 ± 130 ng/mL
same,concentration at 0.5 h,[1]; [4],1750 ± 165 ng/mL
same,concentration at 1 h,[1]; [4],1930 ± 416 ng/mL
same,concentration at 2 h,[1]; [4],1760 ± 262 ng/mL
same,concentration at 4 h,[1]; [5],850 ± 185 ng/mL
same,concentration at 8 h,[1]; [4],780 ± 53.4 ng/mL
same,concentration at 10 h,[1]; [4],676 ± 42.5 ng/mL
same,concentration at 24 h,[1]; [5],33.7 ± 4.48 ng/mL
same,concentration at 0.25 h,[1]; [6],702 ± 91.7 ng/mL
same,concentration at 0.5 h,[1]; [6],1360 ± 270 ng/mL
same,concentration at 1 h,[1]; [6],1940 ± 211 ng/mL
same,concentration at 2 h,[1]; [6],2120 ± 241 ng/mL
same,concentration at 4 h,[1]; [7],950 ± 365 ng/mL
same,concentration at 8 h,[1]; [6],523 ± 19.7 ng/mL
same,concentration at 10 h,[1]; [6],328 ± 12.4 ng/mL
same,concentration at 24 h,[1]; [7],11.2 ± 2.61 ng/mL
same,concentration at 0.25 h,[1]; [8],1580 ± 247 ng/mL
same,concentration at 0.5 h,[1]; [8],2850 ± 361 ng/mL
same,concentration at 1 h,[1]; [8],5130 ± 799 ng/mL
same,concentration at 2 h,[1]; [8],5290 ± 555 ng/mL
same,concentration at 4 h,[1]; [9],2430 ± 222 ng/mL
same,concentration at 8 h,[1]; [8],869 ± 101 ng/mL
same,concentration at 10 h,[1]; [8],617 ± 41.7 ng/mL
same,concentration at 24 h,[1]; [9],12.2 ± 1.4 ng/mL
same,concentration at 0.25 h,[1]; [10],2930 ± 226 ng/mL
same,concentration at 0.5 h,[1]; [10],6300 ± 457 ng/mL
same,concentration at 1 h,[1]; [10],6340 ± 1160 ng/mL
same,concentration at 2 h,[1]; [10],6130 ± 1280 ng/mL
same,concentration at 4 h,[1]; [11],3730 ± 1140 ng/mL
same,concentration at 8 h,[1]; [10],3260 ± 243 ng/mL
same,concentration at 10 h,[1]; [10],2370 ± 37.1 ng/mL
same,concentration at 24 h,[1]; [11],38.9 ± 5.18 ng/mL
same,concentration at 4 h,"[1]; tumor, 0.75 mg/kg p.o. BID x 21 days, mean ± SEM, read-out: Concentration in Tumor",160 ± 24.9 ng/g
same,concentration at 24 h,"[1]; tumor, 0.75 mg/kg p.o. BID x 21 days, read-out: Concentration in Tumor",33 ng/g
same,concentration at 4 h,[1]; [12],390 ± 107 ng/g
same,concentration at 24 h,[1]; [12],14.3 ± 4.44 ng/g
same,concentration at 4 h,[1]; [13],317 ± 61.6 ng/g
same,concentration at 24 h,[1]; [13],6.7 ng/g
same,concentration at 4 h,"[1]; tumor, 3 mg/kg p.o. QD x 21 days, mean ± SEM, read-out: Concentration in Tumor",909 ± 165 ng/g
same,concentration at 24 h,"[1]; tumor, 3 mg/kg p.o. QD x 21 days, read-out: Concentration in Tumor",3.01 ng/g
same,concentration at 4 h,"[1]; tumor, 5 mg/kg p.o. BID x 21 days, mean ± SEM, read-out: Concentration in Tumor",1300 ± 471 ng/g
same,concentration at 24 h,"[1]; tumor, 5 mg/kg p.o. BID x 21 days, read-out: Concentration in Tumor",79.3 ng/g
same,cytotoxicity (in words),A375; A375 cells,potent cytotoxic agents
same,effect on cancer cell viability,"A375; human, a375 cells, 0.1 µM",≥ 30%
